{"source": "patent US20080261945A1", "about": "“Compounds Having Activity at Nk3 Receptor and Uses Thereof in Medicine” (SMITHKLINE BEECHAM CORPORATION, priority 2004, published 2008)", "molecular_target": "T1, NK3 receptor (Homo sapiens, UniProt P29371)", "T1 construct": "expressed in transfected cells; host or cells: CHO cell lines (plasma membrane preparation)", "T1 sequence (P29371 1-465)": "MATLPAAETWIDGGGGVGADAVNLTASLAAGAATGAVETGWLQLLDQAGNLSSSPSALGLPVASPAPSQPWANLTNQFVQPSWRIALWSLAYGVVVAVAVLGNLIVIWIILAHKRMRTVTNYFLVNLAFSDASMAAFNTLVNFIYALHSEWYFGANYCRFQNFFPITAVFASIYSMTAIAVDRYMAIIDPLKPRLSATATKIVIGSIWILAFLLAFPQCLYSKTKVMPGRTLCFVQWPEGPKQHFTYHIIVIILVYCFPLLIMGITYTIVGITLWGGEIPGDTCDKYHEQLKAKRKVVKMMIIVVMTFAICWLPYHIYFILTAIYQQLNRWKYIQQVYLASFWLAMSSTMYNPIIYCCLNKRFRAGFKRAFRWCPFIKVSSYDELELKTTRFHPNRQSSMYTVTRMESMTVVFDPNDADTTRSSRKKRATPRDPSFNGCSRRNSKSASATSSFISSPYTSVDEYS", "test": "NK3 binding affinity, scintillation proximity assay (SPA)", "conditions": "125I [MePhe7]-NKB; plasma membrane from CHO cell lines expressing NK3 receptors", "experimental": "The NK3 binding affinity of the compounds of the invention was determined using the following scintillation proximity assay (SPA) (see H. M. Sarau et al, J. Pharmacol. Experimental Therapeutics 1997, 281(3), 1303-1311; H. M. Sarau et al, J. Pharmacol. Experimental Therapeutics 2000, 295(1), 373-381; G. A. M. Giardina et al J. Med. Chem. 1999, 42, 1053-1065). Polystyrene Leadseeker WGA-SPA beads (Amersham Biosciences) were mixed with plasma membrane prepared from CHO cell lines expressing NK3 receptors in a bead/membrane ratio of 20:1 (w/w) in assay buffer (75 mM Tris pH 7.8, 75 mM NaCl, 4 mM MnCl2, 1 mM EDTA, 0.05% Chaps, 1 mM PMSF). The mixture was placed on ice for 20 minutes to allow the formation of membrane/bead complex before BSA was added to a final concentration of 1%. After another 20 minutes incubation on ice, the bead/membrane complex was washed twice and suspended in assay buffer. ^125I [MePhe7]-NKB was then added to the bead/membrane complex. […] After 2-3 hours incubation at room temperature with shaking, the plates were spun for 2 min at 1100 rpm and measured in Viewlux imager (PerkinElmer) for 5 minutes with a 618-nm filter. Inhibition of the radioactive ligand binding to the NK3 receptor was measured by the reduction of signal. pKi was calculated using Kd of the radioactive ligand determined in a separate experiment."}
{"smiles": "CC[C@H](NC(=O)c1c(COC[C@@H]2CCCN2C)c(-c2ccccc2)nc2ccccc12)c1ccccc1", "note": "[Example 1, 3-[({[(2S)-1-Methyl-2-pyrrolidinyl]methyl}oxy)methyl]-2-phenyl-N-[(1S)-1-phenylpropyl]-4-quinolinecarboxamide]", "values": [{"measurement": "Ki", "value": 6.31, "unit": "nM"}]}
